Here are results for two substances from patent US11110158B2, “Prostate-associated antigens and vaccine-based immunotherapy regimens” (Pfizer Inc., priority 2012, dated 2021).

Several values for one entry are separate records, joined by “and”; a condition that tells them apart may be missing. Identical values can stand only once.

One assay has as its system LNCaP. Description: FACS cell binding assay of sera from PSMA vaccinated mice. Format: cell-based, human. Conditions: Table 4. As to the method:
Various prostate cancer cell lines were used for this assay. […] The cell binding assay was performed as follows: LNCaP and PC3 cells (or TRAMP-C2PSMA and TRAMP C2) were plated in separate wells at 2×10^5 cells/well (50 μL) in a 96 well plate. Sera from PSMA vaccinated mice, as described in […], were diluted 1:50 with FACS buffer (PBS pH 7.4, 1% FBS, 25 mM HEPES, and 1 mM EDTA). Fifty μL of diluted J591-A antibody (mouse anti-human PSMA antibody, clone J591-A from ATCC) were added to the diluted test sera or FACS buffer (unstained samples) to achieve the appropriate cell numbers per well in the staining plate. All was mixed by pipetting and then kept on ice for 20 min. The cells were washed twice with FACS buffer; each wash was by centrifugation at 1200 RPM at 5° C. for 5 minutes. Fifty μL of secondary staining solution were added containing a 1:200 dilution of PE-labeled goat anti-mouse Ig (Sigma, cat P9670-5) and 0.25 μl of Live/Dead Aqua stain (Invitrogen, cat. #L34957) to each of the cell containing wells and kept on ice for 20 min. Cells were washed twice as described earlier. Washed cell pellets were resuspended in 125 uL FACS buffer and then 75 uL 4% paraformaldehyde solution were added to each well to fix the cells. Samples were kept on ice and protected from light for at least 15 min. Samples were run on FACS Canto II. Ten thousand live cell events were recorded for each sample. […]

The subject of assay [1] is hPSMA full-length protein. Description: IFN-γ ELISPOT, hPSMA modified versus full-length DNA vaccine in C57BL/6 mice. The format is in vivo, human. Particulars: Example 7, FIG. 26; C57BL/6, PMED days 0, 14, 28; day 35. An excerpt:
The immune responses induced by DNA vaccination using a construct encoding an immunogenic PSMA polypeptide (the “human PSMA modified antigen” or “hPSMA modified”) consisting 15-750 amino acids (aa) of the native human PSMA protein of SEQ ID NO: 1 were compared with those induced by the native human full-length PSMA protein (hPSMA full length). Groups of female C57BL/6 mice or female Pasteur (HLA-A2/DR1) transgenic mice were primed on day 0 and boosted on days 14, 28 by PMED administration with a 2 μg dose of a DNA vaccine encoding either hPSMA full-length or hPSMA modified protein. Mice were bled and sacrificed on day 35 (7 days after the third vaccination) and T cell immune responses against the hPSMA full-length protein were determined in splenocytes by IFN-γ ELISPOT assay. For C57BL/6 mice, single cell suspensions of 5×10^5 splenocytes from individual animals were plated per well with […] purified hPSMA protein, 5×10^4 TRAMP-C2 cells alone, or TRAMP-C2 cells expressing hPSMA or a PSMA-PSA-PSCA fusion protein. […] Responses in Pasteur mice were also determined using 10 μg/ml purified PSMA protein or 5×10^4 SK-Mel5 cells that had been transduced with Adenoviral vectors expressing a control protein (Ad-eGFP) or the full-length human PSMA protein (Ad-hPSMA). […] The number of IFN-γ SFC was counted by a CTL reader. […]

The next assay deals with rhesus PSMA. Description: IFNγ ELISPOT of PBMCs, PSMA vaccine with or without anti-CTLA-4 in Indian rhesus macaques, rhesus PSMA recall antigens. The format is in vivo. Particulars: Group 2, vaccine + CpG 3 mg intradermal + aCTLA4 10 mg/kg intravenous (IV), normalized to 1e6 PBMCs, one cell per animal. The source says: Three groups of male Indian rhesus macaques, five to six (#1 to 5 or 6) per each test group, were immunized with a nucleic acid (SEQ ID NO: 10) that encodes a human PSMA modified antigen (SEQ ID NO: 9) delivered by adenovirus (1e11 V.P. injected intramuscularly) followed by 2 DNA immunizations (8 actuations/immunization, 4 actuations per each right and left side of the lower abdomen) by PMED with 6 and 9 week intervals respectively. Animals in Groups 2 and 3 additionally received bilateral intradermal injections of 3 mg of CpG (PF-03512676) subsequently after the PMED immunization in proximity to each inguinal draining lymph node. Group 2 also received intravenous injections of anti-CTLA-4 monoclonal antibody (CP-675, 206) at 10 mg/kg and group 3 received intradermal injections of anti-CTLA-4 monoclonal antibody (CP-675, 206) at 5 mg/kg in proximity to each left and right inguinal vaccine draining lymph node at the time of the second PMED immunization.
Peripheral blood samples were collected from each animal sixteen days after the last PMED immunization. Peripheral blood mononuclear cells (PBMCs) were isolated from the samples and were subjected to an IFNγ ELISPOT assay to measure the PSMA specific T cell responses. […] The number of IFNγ spot forming cells (SFC) were counted by CTL reader. […]

Regarding “PSMA modified: membrane-bound polypeptide of amino acids 15-750 of human PSMA, SEQ ID NO: 9; tested as DNA construct”, in the assay with LNCaP (binding of serum anti-PSMA antibodies (1:50) to human prostate cancer cells LNCaP by FACS, background PC3), the “Fold over background Average (+/−SD)” value is listed as 6.01 (0.38). In addition, the “# of positive” value in the assay with LNCaP (mice with serum binding to LNCaP by FACS / N) is listed as 4/4. Further, the “IFN-γ T cell responses to TRAMP C2-PSMA or purified hPSMA protein” value in assay [1] is “equivalent T cell immune responses”.

Regarding “Tremelimumab: fully human IgG2 anti-CTLA-4 monoclonal antibody, CAS 745013-59-6, SEQ ID NOs:42 and 43”, in the assay on rhesus PSMA, the “PSMA specific IFNγ SFC, recall antigen R1” value is 6.3 SFC and 0.0 SFC and 22.5 SFC and 26.3 SFC and 97.5 SFC; the “PSMA specific IFNγ SFC, recall antigen rPSMA protein” value was 0.0 SFC and 3.8 SFC and 1.3 SFC and 2.5 SFC and 20.0 SFC.
